Assay [1] relates to Rattus norvegicus. Briefly: Cytoprotective effect at an oral dose of 40 mg/kg. Also on record: unit not given here. The class given is functional.
The subject of assay [2] is Rattus norvegicus. Kind of assay: Compound was evaluated for the cytoprotective effect at an oral dose of 40 mg/kg in rat. Format: functional.

In turn, `C=C1C(=O)O[C@@H]2C[C@@H](C)[C@@H]3C=CC(=O)[C@@]3(C)[C@@H](O)[C@H]12` [HELENALIN] yielded a Cytoprotective effect in assay [1] of 0.33.
The molecule `C=C1C(=O)O[C@H]2[C@H]1CCC(C)=C1C[C@H]3O[C@@]3(C)[C@@H]12` [LUDARTIN] displayed a Cytoprotective effect in assay [1] of 0.5.
Take `C[C@@H]1C[C@H]2OC(=O)[C@H](C)[C@H]2[C@H](O)[C@]2(C)C(=O)C=CC12` (some centres not stated): in assay [1], the Cytoprotective effect amounted to 0.66.
With `C[C@@H]1C[C@H]2OC(=O)[C@H](C)[C@H]2[C@H](O)[C@]2(C)C(=O)CCC12` (some centres not stated), the Cytoprotective effect in assay [2] was found to be 3.7.
In turn, `C=C1C(=O)O[C@@H]2[C@H]3C(C)=CC(=O)C3=C(C)CC[C@@H]12` [DEHYDROLEUCODIN] had a Cytoprotective effect in assay [1] of 0.25.
For the molecule `C=C1C(=O)OC2/C=C(\C)C[C@@H]3C=C(CC(OC(=O)C(C)CC)[C@@H]12)C(=O)O3` (some centres not stated), the Cytoprotective effect in assay [1] was found to be 4.
In the case of `C=C1C(=O)O[C@@H]2C[C@@H](C)C3CCC(=O)[C@@]3(C)[C@@H](O)[C@H]12` (some centres not stated), in assay [1], the Cytoprotective effect worked out at 1.
In turn, `C=C1C(=O)O[C@@H]2C[C@@H](C)C3C=CC(=O)[C@@]3(C)[C@@H](OC(=O)CN)[C@H]12` (some centres not stated) came in with a Cytoprotective effect in assay [1] of 0.85.
In the case of `C=C1C(=O)O[C@H]2C[C@@H](C)[C@@H]3C=CC(=O)[C@@]3(C)[C@H](O)[C@H]12` [MEXICANIN I], the Cytoprotective effect in assay [1] was 0.25.
On to `C=C1C(=O)O[C@@H]2C[C@@H](C)C3=CCC(=O)[C@@]3(C)[C@@H](OC(C)=O)[C@H]12`, for which the Cytoprotective effect in assay [1] was found to be 0.9.
`C=C1C(=O)O[C@@H]2C[C@@H](C)C3C=CC(=O)[C@@]3(C)[C@@H](OC(=O)CNC(=O)C(F)(F)F)[C@H]12` (some centres not stated) came in with a Cytoprotective effect in assay [1] of 0.95.
For the molecule `C=C1C(=O)O[C@@H]2C[C@@H](C)C3C=CC(=O)[C@@]3(C)[C@@H](OC(C)=O)[C@H]12` (some centres not stated), the Cytoprotective effect in assay [1] is reported as 1.
On to `CC1C(=O)O[C@@H]2[C@H]1CC[C@H](C)[C@@]1(O)CCC(=O)[C@@]21C` (some centres not stated), for which the Cytoprotective effect in assay [2] was found to be 4.5.
In assay [1], `CC1C(=O)O[C@@H]2[C@H]1CC[C@H](C)[C@@]1(O)C=CC(=O)[C@@]21C` (some centres not stated) yielded a Cytoprotective effect of 4.
Molecule `C=C1C(=O)O[C@@H]2[C@H]1CC[C@H](C)[C@@]1(O)C=CC(=O)[C@@]21C` [HYMENIN] came in with a Cytoprotective effect in assay [1] of 0.25.
For the molecule `CC1=CC(=O)C2C(C)CC[C@H]3[C@H](C)C(=O)O[C@@H]3[C@]12C` (some centres not stated), in assay [1], the Cytoprotective effect turned out to be 3.5.
As for `C=C1C(=O)O[C@@H]2C[C@@H](C)C3CCC(C)=C3[C@@H](O)[C@H]12` (some centres not stated) [GUAIANOLIDE], the Cytoprotective effect in assay [1] amounted to 0.7.

Values taken from ChEMBL document CHEMBL1125467, “Structure-activity relationship in the gastric cytoprotective effect of several sesquiterpene lactones” (1992).
